Test results: article PMC4791274, “Cerdulatinib, a novel dual SYK/JAK kinase inhibitor, has broad anti-tumor activity in both ABC and GCB types of diffuse large B cell lymphoma” (Oncotarget, 2015)

Key:
JNK3 = conditions: biochemical assay; cited from earlier work
HBL1 cells = test: cell cycle analysis, BrdU incorporation; format: cell-based; conditions: HBL1, 48 h
Description: (§1) DLBCL cells were treated with various concentrations of cerdulatinib for 48 h. Cells were incubated with 10 μM BrdU (BD Biosciences, San Jose, CA) at 37°C for 2 h, and stained with PE conjugated anti-BrdU antibody (BD Biosciences) according to the supplier's manual. The percentage of cell cycle distribution was analyzed with FlowJo (Tree Star Inc. Ashland, OR).

LY3 cells = test: cell cycle analysis, BrdU incorporation; format: cell-based; conditions: LY3, 48 h
Description: as §1

LY18 cells [1] = test: cell cycle analysis, BrdU incorporation; format: cell-based; conditions: LY18, 48 h
Description: as §1

DHL2 cells = test: cell cycle analysis, BrdU incorporation; format: cell-based; conditions: DHL2, 48 h
Description: as §1

DHL6 cells = test: cell cycle analysis, BrdU incorporation; format: cell-based; conditions: DHL6, 48 h
Description: as §1

[2] = system: splenomegaly induced by chronic BCR stimulation; conditions: mice; cited from earlier work
[3] = system: phosphorylation of STAT3 at Y705; test: immunoblotting of p-STAT3 in IL-6/IL-10 stimulated DLBCL cell lines; format: cell-based; conditions: 3 μM, IL-6 and IL-10 stimulated ABC and GCB cell lines
Description: (§2) Immunoblotting were performed as previously described. Antibodies including total STAT3, SYK, PLCγ2, AKT, ERK1/2, PARP, caspase 3, and phosphorylated STAT3 (S727), STAT3 (Y705), SYK (Y525/526), PLCγ2 (Y759), PLCγ2 (Y1217), AKT (S473), ERK1/2 (Y204) and RB (S807/811) were purchased from Cell Signaling (Danvers, MA). Cyclin E antibody was purchased from Santa Cruz Biotechnology (Dallas, TX), and β-actin antibody was purchased from Sigma-Aldrich (St Louis, MO). Antibodies used in phosphoflow assay, including phosphorylated STAT3 (S727), SYK (Y525/526), PLCγ2 (Y759), AKT (S473), and ERK1/2 (Y204) were purchased from BD Biosciences (San Jose, CA).

FLT4 = conditions: biochemical assay; cited from earlier work
LY18 cells [4] = test: PARP and caspase 3 cleavage, Western blotting; format: cell-based; conditions: LY18, 48 h
Description: as §2

JAK3 = conditions: biochemical assay; cited from earlier work
LCK = conditions: cited from earlier work
JAK1 = conditions: biochemical assay; cited from earlier work
ARK5 = conditions: biochemical assay; cited from earlier work
AMPK = conditions: biochemical assay; cited from earlier work
[5] = system: patients with CLL and NHL; design: method as in Flinn I, et al. 2015 ASCO annual meeting Abstract #8531; conditions: oral, ref Flinn I, et al. 2015 ASCO annual meeting Abstract #8531; cited from earlier work
[6] = system: LY3 (OCI-LY3) ABC DLBCL cell line; test: MTT assay (cellular metabolic activity), 72 h; format: cell-based; conditions: Homo sapiens, OCI-Ly3, 72 h
Description: (§3) DLBCL cell lines were treated with various concentrations of cerdulatinib for up to 72 h. The metabolic activities of cells were determined with MTT assay according to manufacturer's instruction (Roche Applied Science, Indianapolis, IN) at 72 h time point. IC50 was calculated using the Sigma Plot generated with GraphPad Prism 6 software (GraphPad, La Jolla, CA). Cell growth was measured at every 24 h counting live cells with flow cytometry as previously described. Cells were collected every 24 h and cell viability was determined by the PE Annexin V Apoptosis Detection Kit I (BD Biosciences).

HBL1 ABC DLBCL cell line = test: MTT assay (cellular metabolic activity), 72 h; format: cell-based; conditions: HBL1, 72 h
Description: as §3

[7] = system: LY4 (OCI-LY4) GCB DLBCL cell line; test: MTT assay (cellular metabolic activity), 72 h; format: cell-based; conditions: LY4, 72 h
Description: as §3

[8] = system: LY10 (OCI-LY10) ABC DLBCL cell line; test: MTT assay (cellular metabolic activity), 72 h; format: cell-based; conditions: LY10, 72 h
Description: as §3

[9] = system: LY8 (OCI-LY8) GCB DLBCL cell line; test: MTT assay (cellular metabolic activity), 72 h; format: cell-based; conditions: OCI-Ly8, 72 h
Description: as §3

[10] = system: SUDHL6 GCB DLBCL cell line; test: MTT assay (cellular metabolic activity), 72 h; format: cell-based; conditions: Homo sapiens, SU-DHL-6; SUDHL6, 72 h
Description: as §3

[11] = system: LY1 (OCI-LY1) GCB DLBCL cell line; test: MTT assay (cellular metabolic activity), 72 h; format: cell-based; conditions: Homo sapiens, OCI-Ly1, 72 h
Description: as §3

VAL GCB DLBCL cell line = test: MTT assay (cellular metabolic activity), 72 h; format: cell-based
Description: as §3

[12] = system: SUDHL2 ABC DLBCL cell line; test: MTT assay (cellular metabolic activity), 72 h; format: cell-based; conditions: Homo sapiens, SU-DHL-2; SUDHL2, 72 h
Description: as §3

[13] = system: U2932 ABC DLBCL cell line; test: MTT assay (cellular metabolic activity), 72 h; format: cell-based; conditions: Homo sapiens, U2932, 72 h
Description: as §3

[14] = system: LY18 (OCI-LY18) GCB DLBCL cell line; test: MTT assay (cellular metabolic activity), 72 h; format: cell-based; conditions: Homo sapiens, OCI-Ly18, 72 h
Description: as §3

For `CCS(=O)(=O)N1CCN(c2ccc(Nc3ncc(C(N)=O)c(NC4CC4)n3)cc2)CC1` [cerdulatinib], the IC50 (JNK3) is listed as 18 nM, the S phase fraction (HBL1 cells) is listed as “significant dose-dependent reduction” and the “effect on S phase fraction” value (LY3 cells) is listed as “modest”. For the same molecule, the S phase fraction (LY18 cells [1]) was “significant dose-dependent reduction”, the “effect on S phase fraction” value (DHL2 cells) was “modest” and the S phase fraction (DHL6 cells) was “significant dose-dependent reduction”. The splenomegaly [2] was “alleviates splenomegaly”, the “phosphorylation of STAT3 at Y705” value [3] was “completely blocked” and the IC50 (FLT4) was 51 nM. For the same molecule, the “PARP and caspase 3 cleavage” value (LY18 cells [4]) was “little changes”, the IC50 (JAK3) was 8 nM and the “cellular activity against LCK” value (LCK) was “lacking cellular activity”. For the same molecule, the IC50 (JAK1) was 12 nM, the IC50 (ARK5) was 4 nM and the IC50 (AMPK) was 6 nM. For the same molecule, the target tumor reductions [5] was “greater than 50%”, the IC50 [6] was 1.66 µM and the IC50 (HBL1 ABC DLBCL cell line) was 0.54 µM. The IC50 [7] was 2.1 µM, the IC50 [8] was 0.29 µM and the IC50 [9] was 0.05 µM. For the same molecule, the IC50 [10] was 0.1 µM, the IC50 [11] was 0.27 µM and the IC50 (VAL GCB DLBCL cell line) was 0.13 µM. It also gave an IC50 [12] of 0.98 µM, an IC50 [13] of 1.8 µM and an IC50 [14] of 0.16 µM.
